Four compounds from PMC9434621 (ACS Omega, 2022) can be followed below.

The target in assay [1] is T1, bovine erythrocyte CA (Bos taurus, UniProt P00921). The conditions noted are these: test concentration not given; Figure 2.
The target of assay [2] is T1, bovine erythrocyte CA. The conditions noted are these: sample 0.5 mM in DMSO, 15 min incubation with enzyme at room temperature.
The target of assay [3] is T1, bovine erythrocyte CA. Nature of the assay: biochemical.

Broadly, the % inhibition is the percentage by which the read-out fell short of the control. Lower therefore signals a response near the control. One may read the IC50 as the concentration that inhibits the measured activity by half.

T1 sequence (P00921 whole entry): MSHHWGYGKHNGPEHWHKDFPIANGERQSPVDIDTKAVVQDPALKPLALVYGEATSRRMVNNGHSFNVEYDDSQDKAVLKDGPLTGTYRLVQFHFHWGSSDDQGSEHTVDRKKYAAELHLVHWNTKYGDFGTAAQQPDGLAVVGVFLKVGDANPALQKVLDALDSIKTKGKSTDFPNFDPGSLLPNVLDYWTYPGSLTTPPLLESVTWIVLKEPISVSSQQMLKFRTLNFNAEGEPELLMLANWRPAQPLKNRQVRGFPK

In the case of `CCCC1=NOC(=O)/C1=C/c1cccs1` [AC2, (E)-3-Propyl-4-(thiophen-2-ylmethylene) Isoxazol-5(4H)-one], the “% inhibition” value in assay [1] came to 79.5%. Besides, the “enhancement of fluorescence signal after complex formation with CA” value in assay [2] is recorded as “significant fluorescence enhancement”. In assay [3], half-maximal inhibition (IC50) required 112 ± 1.6 µM.
Turning to `CCCC1=NOC(=O)/C1=C/c1ccc(OC)cc1O` [AC1, (E)-4-(2-Hydroxy-4-methoxybenzylidene)-3-propylisoxazol-5(4H)-one], the “% inhibition” value in assay [1] is given as 58.4%.
Regarding “(E)-4-(2-Methoxybenzylidene)-3-propylisoxazol-5(4H)-one [AC3]”, the “% inhibition” value in assay [1] is 68.7%. Further, the “enhancement of fluorescence signal after complex formation with CA” value in assay [2] is listed as “significant fluorescence enhancement”.
In the case of `CCCC1=NOC(=O)/C1=C/c1ccc(O)cc1` [AC4, (E)-4-(4-Hydroxybenzylidene)-3-propylisoxazol-5(4H)-one], the “% inhibition” value in assay [1] was determined as 50.5%.
